Consider 23 molecules from patent US10882837B2, “Amide compounds and use thereof” (ALPHALA CO., LTD., priority 2017, dated 2021).

A value given as a limit tells only on which side of the number the result lay.

Test [1] addresses T1, glucagon receptor (GCGR) (Homo sapiens, UniProt P47871).
T1 construct: expressed in transfected cells; host or cells: CHO-K1
The test is described as follows: Glucagon cAMP inhibition assay (Cisbio cAMP Dynamic 2 HTRF). In kind it is cell-based. Conditions: GCGR overexpressed CHO-K1 cells or human primary hepatocytes (not specified); glucagon at EC50. On the procedure:
Glucagon eAMP Inhibition Assay
Downstream secondary messenger eAMP induced by glucagon was detected by Cisbio cAMP Dynamic 2 kit. Testing compounds were each prepared as a dimethyl sulfoxide (DMSO) solution at the concentration of 10 mM. To evaluate the potency of compounds in inhibiting the cAMP production, glucagon receptor (GCGR) overexpressed CHO-K1 cells or human primary hepatocytes were treated with compounds with a serial dilution. The cells were re-suspended in Hank's Balanced Salt solution (HBSS) contained 0.1% (w/v) bovine serum albumin and 800 nM 3-isobutyl-1-methylxanthine (IBMX) and seeded into low volume, 384 wells white plate. The diluted compounds were then added into the plate for 30 minutes pre-incubation where the final DMSO concentration was 1%. The cells were stimulated with glucagon at the concentration equaled to EC50 (an indicium of the concentration of a drag that gives half-maximal response) for 30 minutes at room temperature. After incubation, lysis buffer contain cAMP antibody and fluorescence acceptor were added into each well for additional 60 minutes incubation. Results were recorded by Molecular Devices SpectraMax Paradigm with the HTRF Detection Cartridges and the IC50 value of each compound in inhibiting the cAMP production was calculated with non-linear regression based on the amount of cAMP production.
For orientation: Time-resolved FRET reads energy transfer from a long-lived donor to a nearby acceptor.

Test [2] concerns the target GCGR (Homo sapiens, UniProt P47871). Put plainly: I125-glucagon binding assay (competition, GCGR membrane fractions). More on the design: expressed in transfected cells; host or cells: CHO-K1; inhibition: dose or concentration left out as unconfirmed. The note with it: for IC50: competition with I125-glucagon 0.0625 nM, membrane fractions from GCGR overexpressed CHO-K1 cells. On the procedure: I^125-Glucagon Binding Assay
The binding affinity of each compound was evaluated by a competition assay with I^125-glucagon. GCGR membrane fractions were obtained from GCGR overexpressed CHO-K1 cells as a stock of 1 mg/ml concentration. To evaluate the IC50 of compounds binding to GCGR, GCGR membrane fractions were treated with compounds with a serial dilution. The membrane fractions were diluted to 7.5 microgram per well in 70 microliter assay buffer contained 50 mM Tris pH 7.4 and 0.5% (w/v) bovine serum albumin and added into 96 wells plate. The membrane fractions were then mixed with 10 microliter diluted compounds. After 5 minutes pre-incubation, 20 microliter I^125 labeled glucagon (Perkin Elmer) was added into each well at the final concentration of 0.0625 nM. The assay mixtures were incubated at 25° C. for 30 minutes and then transferred onto the Millipore Multiscreen GF/B Plate coated with 0.5% (w/v) Polyethyleneimine. The filter plate was washed with wash buffer contained 50 mM Tris pH 7.4 for 2 times, 300 microliter each time. The residual isotope was detected by Hidex CHAMELEON V micro-beta counter and the IC50 value of each compound binding to GCGR was calculated with non-linear regression.

GCGR, sequence (P47871 26-477, species assumed): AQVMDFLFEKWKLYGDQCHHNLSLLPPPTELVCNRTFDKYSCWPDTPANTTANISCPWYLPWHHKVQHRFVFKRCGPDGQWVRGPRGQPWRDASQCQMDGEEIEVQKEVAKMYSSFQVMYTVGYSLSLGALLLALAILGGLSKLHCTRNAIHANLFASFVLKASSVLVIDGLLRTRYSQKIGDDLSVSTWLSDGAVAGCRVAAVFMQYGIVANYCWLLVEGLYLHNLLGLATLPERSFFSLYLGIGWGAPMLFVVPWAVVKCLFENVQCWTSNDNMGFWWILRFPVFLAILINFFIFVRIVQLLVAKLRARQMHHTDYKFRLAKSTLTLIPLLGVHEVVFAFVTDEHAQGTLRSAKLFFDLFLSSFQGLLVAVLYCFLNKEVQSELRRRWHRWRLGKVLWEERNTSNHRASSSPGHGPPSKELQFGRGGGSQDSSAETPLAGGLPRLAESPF
T1 sequence (P47871 26-477, species assumed): as above

As a reminder, the IC50 is the concentration that inhibits the measured activity by half. Turning to `CCCC[C@@H](Nc1ccc(C(=O)NCCC(=O)O)cc1)c1ccc(-c2nnc(-c3ccccn3)o2)cc1` [Compound 1-46], the IC50 in test [1] is above 30 µM; in test [2], 0.702 µM.

What is called inhibition is the drop in the measured response relative to a control, in per cent. Consider `CCOC(=O)CCNC(=O)c1ccc(N[C@H](c2ccc(-c3nnc(-c4ccccc4)o3)cc2)C(C)CC)cc1` (stereo partly drawn) [Compound 1-47, ethyl 3-(4-(((1S)-2-methyl-1-(4-(5-phenyl-1,3,4-oxadiazol-2-yl)phenyl)butyl)amino)benzamido)propanoate], for which the IC50 in test [1] was 0.037 µM; in test [2], 0.226 µM. The inhibition at 30 µM in test [2] (compound at 30 μM, read-out: percentage of inhibition (number in parenthesis in IC50 binding column)) is 28%.

For `CCOC(=O)CCNC(=O)c1ccc(N[C@@H](c2ccc(-c3nnc(-c4ccccc4)o3)cc2)C(C)CC)cc1` (stereo partly drawn) [Compound 1-48, ethyl 3-(4-(((1R)-2-methyl-1-(4-(5-phenyl-1,3,4-oxadiazol-2-yl)phenyl)butyl)amino)benzamido)propanoate], the IC50 is 0.164 µM in test [1] and above 30 µM in test [2].

For `CCC(C)[C@@H](Nc1ccc(C(=O)NCCC(=O)O)cc1)c1ccc(-c2nnc(-c3ccccc3)o2)cc1` (stereo partly drawn) [Compound 1-50, 3-(4-(((1R)-2-methyl-1-(4-(5-phenyl-2,3,4-oxadiazol-2-yl)phenyl)butyl)amino)benzamido)propanoic acid], the IC50 in test [1] was found to be 2.73 µM; in test [2], 0.082 µM.

Turning to `CCCC[C@H](Nc1ccc(C(=O)NCCC(=O)OCC)cc1)c1ccc(-c2nnc(C(F)(F)F)o2)cc1` [Compound 1-51, ethyl (S)-3-(4-((1-(4-(5-(trifluoromethyl)-1,3,4-oxadiazol-2-yl)phenyl)pentyl)amino)benzamido)propanoate], the IC50 in test [1] stood at 0.0339 µM; in test [2] it was 6.17 µM.

Regarding `CCCC[C@@H](Nc1ccc(C(=O)NCCC(=O)OCC)cc1)c1ccc(-c2nnc(C(F)(F)F)o2)cc1` [Compound 1-52, ethyl (R)-3-(4-((1-(4-(5-(trifluoromethyl)-1,3,4-oxadiazol-2-yl)phenyl)pentyl)amino)benzamido)propanoate], the IC50 in test [1] was 0.439 µM; in test [2], above 30 µM.

Regarding `CCCC[C@H](Nc1ccc(C(=O)NCCC(=O)O)cc1)c1ccc(-c2nnc(C(F)(F)F)o2)cc1` [Compound 1-53, (S)-3-(4-((1-(4-(5-(trifluoromethyl)-1,3,4-oxadiazol-2-yl)phenyl)pentyl)amino)benzamido)propanoic acid], the IC50 in test [1] came out at 1.87 µM; in test [2], 0.351 µM.

As for `CCCC[C@@H](Nc1ccc(C(=O)NCCC(=O)O)cc1)c1ccc(-c2nnc(C(F)(F)F)o2)cc1` [Compound 1-54, (R)-3-(4-((1-(4-(5-(trifluoromethyl)-1,3,4-oxadiazol-2-yl)phenyl)pentyl)amino)benzamido)propanoic acid], the figures for the IC50 in test [1] and in test [2] were 3.67 µM and 3.07 µM, respectively.

Regarding `CCOC(=O)CCNC(=O)c1ccc(N[C@H](c2ccc(-c3nnc(C(F)(F)F)o3)cc2)C(C)C)cc1` [Compound 1-55, ethyl (S)-3-(4-((2-methyl-1-(4-(5-(trifluoromethyl)-1,3,4-oxadiazol-2-yl)phenyl)propyl)amino)benzamido)propanoate], the IC50 in test [1] was 1.36 µM; in test [2], above 30 µM.

As to `CCOC(=O)CCNC(=O)c1ccc(N[C@@H](c2ccc(-c3nnc(C(F)(F)F)o3)cc2)C(C)C)cc1` [Compound 1-56, ethyl (R)-3-(4-((2-methyl-1-(4-(5-(trifluoromethyl)-1,3,4-oxadiazol-2-yl)phenyl)propyl)amino)benzamido)propanoate], the IC50 in test [1] was 0.164 µM; in test [2], above 30 µM.

For `CC(C)[C@@H](Nc1ccc(C(=O)NCCC(=O)O)cc1)c1ccc(-c2nnc(C(F)(F)F)o2)cc1` [Compound 1-58, (R)-3-(4-((2-methyl-1-(4-(5-(trifluoromethyl)-1,3,4-oxadiazol-2-yl)phenyl)propyl)amino)benzamido)propanoic acid], the IC50 in test [1] was above 30 µM; in test [2] it was 0.875 µM.

`CCOC(=O)CCNC(=O)c1ccc(N[C@@H](CC(C)C)c2ccc(-c3nnc(-c4ccccc4)o3)cc2)cc1` [Compound 1-59, ethyl (S)-3-(4-((3-methyl-1-(4-(5-phenyl-1,3,4-oxadiazol-2-yl)phenyl)butyl)amino)benzamido)propanoate]: the IC50 was 0.026 µM in test [1] and above 30 µM in test [2].

`CCOC(=O)CCNC(=O)c1ccc(N[C@H](CC(C)C)c2ccc(-c3nnc(-c4ccccc4)o3)cc2)cc1` [Compound 1-60, ethyl (R)-3-(4-((3-methyl-1-(4-(5-phenyl-1,3,4-oxadiazol-2-yl)phenyl)butyl)amino)benzamido)propanoate]: the IC50 was 0.114 µM in test [1] and above 30 µM in test [2].

For `CC(C)C[C@H](Nc1ccc(C(=O)NCCC(=O)O)cc1)c1ccc(-c2nnc(-c3ccccc3)o2)cc1` [Compound 1-61, (S)-3-(4-((3-methyl-1-(4-(5-phenyl-1,3,4-oxadiazol-2-yl)phenyl)butyl)amino)benzamido)propanoic acid], the results for the IC50 in test [1] and in test [2] were 3.25 µM and 0.201 µM, respectively.

Take `CC(C)C[C@@H](Nc1ccc(C(=O)NCCC(=O)O)cc1)c1ccc(-c2nnc(-c3ccccc3)o2)cc1` [Compound 1-62, (R)-3-(4-((3-methyl-1-(4-(5-phenyl-1,3,4-oxadiazol-2-yl)phenyl)butyl)amino)benzamido)propanoic acid]: the results for the IC50 in test [1] and in test [2] were 2.05 µM and 0.876 µM, respectively.

On to `COC(=O)CCNC(=O)c1ccc(N[C@H](c2ccc(-c3nnc(-c4ccccc4)o3)cc2)C(C)C)cc1` [Compound 1-63, methyl (S)-3-(4-((2-methyl-1-(4-(5-phenyl-1,3,4-oxadiazol-2-yl)phenyl)propyl)amino)benzamido)propanoate], for which the IC50 in test [1] came to 0.028 µM; in test [2] it was 1.53 µM.

Consider `CC(C)[C@H](Nc1ccc(C(=O)NCCS(=O)(=O)O)cc1)c1ccc(-c2nnc(-c3ccccc3)o2)cc1` [Compound 1-64, (S)-2-(4-((2-methyl-1-(4-(5-phenyl-1,3,4-oxadiazol-2-yl)phenyl)propyl)amino)benzamido)ethane-1-sulfonic acid], for which the IC50 is above 30 µM in test [1] and 0.101 µM in test [2].

As to `CCOC(=O)CCNC(=O)c1ccc(NC(c2ccc(-c3noc(C(C)(C)C)n3)cc2)C(C)C)cc1` (stereo not drawn) [Compound 2-1, ethyl 3-(4-((1-(4-(5-(tert-butyl)-1,2,4-oxadiazol-3-yl)phenyl)-2-methylpropyl)amino)benzamido)propanoate], the IC50 in test [1] is 0.24 µM; in test [2], 2.9 µM.

Take `CC(C)C(Nc1ccc(C(=O)NCCC(=O)O)cc1)c1ccc(-c2noc(C(C)(C)C)n2)cc1` (stereo not drawn) [Compound 2-2, 3-(4-((1-(4-(5-(tert-butyl)-1,2,4-oxadiazol-3-yl)phenyl)-2-methylpropyl)amino)benzamido)propanoic acid]: the IC50 in test [1] was 0.878 µM; in test [2] it was 0.171 µM.

For the molecule `CCCCC(Nc1ccc(C(=O)NCCC(=O)OCC)cc1)c1ccc(-c2noc(C(C)(C)C)n2)cc1` (stereo not drawn) [Compound 2-3], the IC50 is 0.225 µM in test [1] and above 30 µM in test [2].

For the molecule `CCCCC(Nc1ccc(C(=O)NCCC(=O)O)cc1)c1ccc(-c2noc(C(C)(C)C)n2)cc1` (stereo not drawn) [Compound 2-4, 3-(4-((1-(4-(5-(tert-butyl)-1,2,4-oxadiazol-3-yl)phenyl)pentyl)amino)benzamido)propanoic acid], the figures for the IC50 in test [1] and in test [2] were 0.329 µM and 0.164 µM, respectively.

For `CCOC(=O)CCNC(=O)c1ccc(NC(CC(C)C)c2ccc(-c3noc(C(C)(C)C)n3)cc2)cc1` (stereo not drawn) [Compound 2-5, ethyl 3-(4-((1-(4-(5-(tert-butyl)-1,2,4-oxadiazol-3-yl)phenyl)-3-methylbutyl)amino)benzamido)propanoate], the IC50 in test [1] came out at 0.395 µM; in test [2], 6.25 µM. Further, the inhibition in test [2] (read-out: percentage of inhibition (number in parenthesis in IC50 binding column)) stood at 63%.

As for `CC(C)CC(Nc1ccc(C(=O)NCCC(=O)O)cc1)c1ccc(-c2noc(C(C)(C)C)n2)cc1` (stereo not drawn) [Compound 2-6, 3-(4-((1-(4-(5-(tert-butyl)-1,2,4-oxadiazol-3-yl)phenyl)-3-methylbutyl)amino)benzamido)propanoic acid], the 50% inhibitory concentration (IC50) in test [1] worked out at 8.63 µM; in test [2] it was 0.226 µM.
